Laboratory results reported in patent US12134620B2 (ARAXES PHARMA LLC, priority 2018, dated 2024).

Target: T1, KRAS G12C 1-169, his-tagged protein, GDP-loaded (Homo sapiens, UniProt P01116, G12C)
T1 construct: KRAS G12C 1-169, his-tagged protein, GDP-loaded; His tag
Experiment: Biochemical assay: covalent modification of KRAS G12C, analysed by mass spectrometry (RapidFire/TOF or Q-Exactive); also: time not given here
Format: binding
Conditions: Modification activity, modification percentage from MS peak intensities
How it was run: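 Covalent adduct formation was quantified by intact-protein mass spectrometry, either TOF or C4 LC-Q Exactive Plus, as percent modified versus unmodified protein after deconvolution. Compounds at 8 or 32 μM final were incubated with 0.5 or 2 μM GDP-bound KRAS G12C(1-169)-His in Hepes/NaCl/MgCl2 buffer before acid quench.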

Structure (SMILES)	Binding %
C=CC(=O)N1CC2(CCN(c3cnc(OCCc4ccccc4)c(-c4c(C)ccc5[nH]ncc45)c3C#N)C2)C1 [Compound I-221, 5-(2-acryloyl-2,6-diazaspiro[3.4]octan-6-yl)-3-(5-methyl-1H-indazol-4-yl)-2-phenethoxyisonicoti-nonitrile]	++ (++ indicates binding activity from 50 to 85%)
C=CC(=O)N1CC2(CCN(c3cncc(-c4c(C)ccc5cnn(C)c45)c3C#N)C2)C1 [Compound I-264, 3-(2-acryloyl-2,6-diazaspiro[3.4]octan-6-yl)-5-(1,6-dimethyl-1H-indazol-7-yl)isonicotinonitrile]	++ (++ indicates binding activity from 50 to 85%)
C=CC(=O)N1CC2(CCN(c3ncnc(-c4c(C)ccc5[nH]ncc45)c3C)C2)C1 [Compound I-257, 1-(6-(5-methyl-6-(5-methyl-1H-indazol-4-yl)pyrimidin-4-yl)-2,6-diazaspiro[3.4]octan-2-yl)prop-2-en-1-one]	+ (+ indicates binding activity greater than 0% and up to 50%)
C=CC(=O)N1CC2(CCN(c3nc(N4CCCC(N(C)C)C4)nc(-c4c(C)ccc5[nH]ncc45)c3C#N)C2)C1 (stereo not shown) [Compound I-110, 4-(2-acryloyl-2,6-diazaspiro[3.4]octan-6-yl)-2-(3-(dimethylamino)piperi-din-1-yl)-6-(5-methyl-1H-indazol-4-yl)pyrimidine-5-carbonitrile]	+++ (+++ indicates binding activity greater than 85%)
C=CC(=O)N1CC2(CCN(c3ncnc(N4CCC[C@H]4C(N)=O)c3C#N)C2)C1 [Compound I-248, (S)-1-(6-(2-acryloyl-2,6-diazaspiro[3.4]octan-6-yl)-5-cyanopyrimidin-4-yl)pyrrolidine-2-carboxamide]	+ (+ indicates binding activity greater than 0% and up to 50%)
C=CC(=O)N1CC2(CCN(c3c(OCCCN(C)C)ncc(-c4c(C)ccc5cnn(C)c45)c3C#N)C2)C1 [Compound I-184, 3-(2-acryloyl-2,6-diazaspiro[3.4]octan-6-yl)-5-(1,6-dimethyl-1H-indazol-7-yl)-2-(3-(dimethylamino)pro-poxy)isonicotinonitrile]	+ (+ indicates binding activity greater than 0% and up to 50%)
C=CC(=O)N1CC2(CCN(c3nc(OCc4cccc(C)n4)nc(-c4c(C)ccc5[nH]ncc45)c3C#N)C2)C1 [Compound I-172, 4-(2-acryloyl-2,6-diazaspiro[3.4]octan-6-yl)-6-(5-methyl-1H-indazol-4-yl)-2-((6-methylpyridin-2-yl)methoxy)pyrimidine-5-carbonitrile]	+++ (+++ indicates binding activity greater than 85%)
Cc1ccc2[nH]ncc2c1-c1nc(OC[C@@H]2CCCN2C)nc(N2CCC3(CN(C(=O)/C=C/CN4CCC4)C3)C2)c1C#N [Compound I-205, 4-(2-((E)-4-(azetidin-1-yl)but-2-enoyl)-2,6-diazaspiro[3.4]octan-6-yl)-6-(5-methyl-1H-indazol-4-yl)-2-(((S)-1-methylpyrrolidin-2-yl)methoxy)pyrimidine-5-carbonitrile]	+ (+ indicates binding activity greater than 0% and up to 50%)
C=CC(=O)N1CC2(CCN(c3nc(OCCc4ncccn4)nc(-c4c(C)ccc5[nH]ncc45)c3C#N)C2)C1 [Compound I-14, 4-(2-acryloyl-2,6-diazaspiro[3.4]octan-6-yl)-6-(5-methyl-1H-indazol-4-yl)-2-(2-(pyrimidin-2-yl)ethoxy)pyrimidine-5-carbonitrile]	++ (++ indicates binding activity from 50 to 85%)
C=CC(=O)N1CC2(CCN(c3nc(N4CCC5(CCN(C)C5)C4)nc(-c4c(C)ccc5[nH]ncc45)c3C#N)C2)C1 (stereo not shown) [Compound I-77, 4-(2-acryloyl-2,6-diazaspiro[3.4]octan-6-yl)-6-(5-methyl-1H-indazol-4-yl)-2-(7-methyl-2,7-diazaspiro[4.4]nonan-2-yl)pyrimidine-5-carbonitrile]	+++ (+++ indicates binding activity greater than 85%)
C=CC(=O)N1CC2(CCN(c3nc(-c4c(C)ccc5[nH]ncc45)c(C#N)c(N4CCOCC4)n3)C2)C1 [Compound I-142, 2-(2-acryloyl-2,6-diazaspiro[3.4]octan-6-yl)-4-(5-methyl-1H-indazol-4-yl)-6-morpholinopyrimidine-5-carbonitrile]	+ (+ indicates binding activity greater than 0% and up to 50%)
C=CC(=O)N1CC2(CCN(c3nc(OC[C@@H]4CCCN4C)nc(-c4ccccc4C(F)(F)F)c3C#N)C2)C1 [Compound I-16, (S)-4-(2-acryloyl-2,6-diazaspiro[3.4]octan-6-yl)-2-((1-methylpyrrolidin-2-yl)methoxy)-6-(2-(trifluoromethyl)phe-nyl)pyrimidine-5-carbonitrile]	+ (+ indicates binding activity greater than 0% and up to 50%)
C=CC(=O)N1CC2(CCN(c3nc(N4CC5CCN(C)CC5C4)nc(-c4c(C)ccc5[nH]ncc45)c3C#N)C2)C1 (stereo not shown) [Compound I-46, 4-(2-acryloyl-2,6-diazaspiro[3.4]octan-6-yl)-6-(5-methyl-1H-indazol-4-yl)-2-(5-methyloctahydro-2H-pyrrolo[3,4-c]pyridin-2-yl)pyrimidine-5-carbonitrile]	+++ (+++ indicates binding activity greater than 85%)
C=CC(=O)N1CC2(CCN(c3ccnc(-c4c(C)ccc5[nH]ncc45)n3)C2)C1 [Compound I-274, 1-(6-(2-(5-methyl-1H-indazol-4-yl)pyrimidin-4-yl)-2,6-diazaspiro[3.4]octan-2-yl)prop-2-en-1-one]	+ (+ indicates binding activity greater than 0% and up to 50%)
C=CC(=O)N1CC2(CCN(c3nc(OC[C@H]4CCCN4C)nc(-c4c(C)ccc5[nH]ncc45)c3C#N)C2)C1 [Compound I-6, 4-(2-acryloyl-2,6-diazaspiro[3.4]octan-6-yl)-6-(5-methyl-1H-indazol-4-yl)-2-(((R)-1-methylpyrrolidin-2-yl)methoxy)pyrimidine-5-carbonitrile]	+++ (+++ indicates binding activity greater than 85%)
C=CC(=O)N1CC2(CCN(c3nc(N4CCN(C)C(=O)C4)nc(-c4c(C)ccc5[nH]ncc45)c3C#N)C2)C1 [Compound I-28, 4-(2-acryloyl-2,6-diazaspiro[3.4]octan-6-yl)-6-(5-methyl-1H-indazol-4-yl)-2-(4-methyl-3-oxopiperazin-1-yl)pyrimidine-5-carbonitrile]	+++ (+++ indicates binding activity greater than 85%)
C=CC(=O)N1CC2(CCN(c3ncnc(-c4c(O)cccc4F)c3C#N)CC2)C1 [Compound I-240, 4-(2-acryloyl-2,7-diazaspiro[3.5]nonan-7-yl)-6-(2-fluoro-6-hydroxyphenyl)pyri-midine-5-carbonitrile]	+ (+ indicates binding activity greater than 0% and up to 50%)
C=CC(=O)N1CC2(CCN(c3nc(N4CCOCC4)nc(N4CCCc5ccccc54)c3C#N)C2)C1 [Compound I-88, 4-(2-acryloyl-2,6-diazaspiro[3.4]octan-6-yl)-6-(3,4-dihydroquinolin-1(2H)-yl)-2-morpholinopyrimidine-5-carbonitrile]	+ (+ indicates binding activity greater than 0% and up to 50%)
C=CC(=O)N1CC2(CCN(c3ncnc(-c4c(C)ccc5[nH]ncc45)c3CO)C2)C1 [Compound I-251, 1-(6-(5-(hydroxymethyl)-6-(5-methyl-1H-indazol-4-yl)pyrimidin-4-yl)-2,6-diazaspiro[3.4]octan-2-yl)prop-2-en-1-one]	+ (+ indicates binding activity greater than 0% and up to 50%)
C=CC(=O)N1CC2(CCN(c3nc(N4CCC(N5CCN(C)[C@@H](C)C5)CC4)nc(-c4c(C)ccc5[nH]ncc45)c3C#N)C2)C1 [Compound I-191, 4-(2-acryloyl-2,6-diazaspiro[3.4]octan-6-yl)-2-(4-((S)-3,4-dimethylpiperazin-1-yl)piperidin-1-yl)-6-(5-methyl-1H-indazol-4-yl)pyrimidine-5-carbonitrile]	+++ (+++ indicates binding activity greater than 85%)
C=CC(=O)N1CC2(CCN(c3nc(OCCCN(C)C)nc(-c4c(C)ccc5[nH]ncc45)c3C#N)C2)C1 [Compound I-5, 4-(2-acryloyl-2,6-diazaspiro[3.4]octan-6-yl)-2-(3-(dimethylamino)pro-poxy)-6-(5-methyl-1H-indazol-4-yl)pyrimidine-5-carbonitrile]	+++ (+++ indicates binding activity greater than 85%)
C=CC(=O)N1CC2(CCN(c3nc(N4CCOCC4)nc(-c4cccc5ccccc45)c3C#N)C2)C1 [Compound I-100, 4-(2-acryloyl-2,6-diazaspiro[3.4]octan-6-yl)-2-morpholino-6-(naphthalen-1-yl)pyrimidine-5-carbonitrile]	+ (+ indicates binding activity greater than 0% and up to 50%)
C=CC(=O)N1CC2(CCN(c3nc(N4CCC(N5CCN(C)C6(CC6)C5)CC4)nc(-c4c(C)ccc5[nH]ncc45)c3C#N)C2)C1 [Compound I-194, 4-(2-acryloyl-2,6-diazaspiro[3.4]octan-6-yl)-6-(5-methyl-1H-indazol-4-yl)-2-(4-(4-methyl-4,7-diazaspiro[2.5]octan-7-yl)piperidin-1-yl)pyrimidine-5-carbonitrile]	+++ (+++ indicates binding activity greater than 85%)
C=CC(=O)N1CC2(CCN(c3ncnc(-c4c(C)ccc5[nH]ncc45)c3C3CC3)C2)C1 [Compound I-249, 1-(6-(5-cyclopropyl-6-(5-methyl-1H-indazol-4-yl)pyrimidin-4-yl)-2,6-diazaspiro[3.4]octan-2-yl)prop-2-en-1-one]	+ (+ indicates binding activity greater than 0% and up to 50%)
C=CC(=O)N1CC2(CCN(c3cncc(-c4c(C)ccc5[nH]nc(N)c45)c3C#N)C2)C1 [Compound I-277, 3-(2-acryloyl-2,6-diazaspiro[3.4]octan-6-yl)-5-(3-amino-5-methyl-1H-indazol-4-yl)isonicotinonitrile]	++ (++ indicates binding activity from 50 to 85%)
